Molecular target: T1, Tumor necrosis factor receptor superfamily member 1A (Homo sapiens, UniProt P19438)
T1 sequence (P19438 whole entry): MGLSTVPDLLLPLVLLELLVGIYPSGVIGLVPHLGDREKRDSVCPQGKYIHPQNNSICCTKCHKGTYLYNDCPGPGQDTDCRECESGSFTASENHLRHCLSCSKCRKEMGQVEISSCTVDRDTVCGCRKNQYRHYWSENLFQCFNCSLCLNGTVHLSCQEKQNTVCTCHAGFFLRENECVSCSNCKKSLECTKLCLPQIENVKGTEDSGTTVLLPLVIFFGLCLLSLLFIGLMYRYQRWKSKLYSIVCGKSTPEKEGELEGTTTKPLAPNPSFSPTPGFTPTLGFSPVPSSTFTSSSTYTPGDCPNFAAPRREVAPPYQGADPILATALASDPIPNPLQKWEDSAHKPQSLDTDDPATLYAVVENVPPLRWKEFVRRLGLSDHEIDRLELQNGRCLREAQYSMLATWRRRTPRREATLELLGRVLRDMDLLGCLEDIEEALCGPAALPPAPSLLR
Assay: ChEBML_212214
Description: Inhibition of TNF-alpha binding to TNFRc1

Row | Compound | IC50
1 | C=CCn1c(S)c2c(=C)c3c(OC)cc(OC)cc3n2c1=S [2-Allyl-6,8-dimethoxy-9-methyl-imidazo[1,5-a]indole-1,3-dithione] | 210 nM
2 | C=CCn1c(S)c2c(=C)c3c(OC)cc(OC)cc3n2c1=O [2-Allyl-6,8-dimethoxy-9-methyl-1-thioxo-1,2-dihydro-imidazo[1,5-a]indol-3-one] | 210 nM
